According to the NIST ThermoML archive (doi:10.1016/j.fluid.2012.06.031):

Key:
[1] = 298.15 K; 101.33 kPa; Liquid; Pycnometric method
[2] = refractive index (Na D-line) (dimensionless); details: 298.15 K; 101.33 kPa; Liquid; Standard Abbe refractometry
[3] = xn = mol fraction of the nth substance listed; details: 298.15 K, 101 kPa, Liquid, Pycnometric method
[4] = refractive index (Na D-line) (dimensionless); xn = mol fraction of the nth substance listed; details: 298.15 K, 101 kPa, Liquid, Standard Abbe refractometry
[5] = excess molar enthalpy (molar enthalpy of mixing); xn = mol fraction of the nth substance listed; details: 298.15 K, 101 kPa, Liquid, solution calorimetry

CC(C)CC(C)(C)C [2,2,4-trimethylpentane]
Details	mass density [kg/m3]	refractive index
[1]	687.9	–
[2]	–	1.3889

CC(C)CC(C)(C)C [2,2,4-trimethylpentane] + CCCCO
Details	excess molar enthalpy, [5] [kJ/mol]	mass density, [3] [kg/m3]	refractive index, [4]
x2 = 0.05	0.396	–	–
x2 = 0.0501	–	690.95	1.38897
x2 = 0.1	0.5023	–	–
x2 = 0.1001	–	694.28	1.38909
x2 = 0.1501	–	697.81	1.38925
x2 = 0.1502	0.5697	–	–
x2 = 0.2	0.5874	701.56	1.38946
x2 = 0.2995	0.6228	–	–
x2 = 0.3001	–	709.77	1.38999
x2 = 0.3999	–	718.98	1.39067
x2 = 0.4	0.6287	–	–
x2 = 0.5	–	729.4	1.39149
x2 = 0.5001	0.5938	–	–
x2 = 0.5999	–	741.16	1.39244
x2 = 0.6002	0.5157	–	–
x2 = 0.6999	–	754.51	1.3935
x2 = 0.7	0.405	–	–
x2 = 0.8	0.287	769.68	1.39466
x2 = 0.8499	0.223	–	–
x2 = 0.85	–	778.03	1.39527
x2 = 0.9	0.15	786.94	1.3959
x2 = 0.9499	0.0788	–	–
x2 = 0.95	–	796.46	1.39654

CC(C)CC(C)(C)C [2,2,4-trimethylpentane] + CCCO
Details	excess molar enthalpy, [5] [kJ/mol]	mass density, [3] [kg/m3]	refractive index, [4]
x2 = 0.0502	–	689.82	1.3885
x2 = 0.0516	0.408	–	–
x2 = 0.1	0.525	–	–
x2 = 0.1002	–	692.19	1.38816
x2 = 0.15	0.5598	–	–
x2 = 0.1504	–	694.9	1.38785
x2 = 0.1999	–	697.87	1.38759
x2 = 0.2001	0.6094	–	–
x2 = 0.3	–	704.65	1.38712
x2 = 0.3001	0.6544	–	–
x2 = 0.3999	–	712.46	1.38669
x2 = 0.4001	0.6533	–	–
x2 = 0.5	–	721.44	1.38627
x2 = 0.5002	0.6025	–	–
x2 = 0.6001	0.5251	731.85	1.3858
x2 = 0.7	–	744.14	1.38526
x2 = 0.7048	0.406	–	–
x2 = 0.7999	–	758.95	1.38462
x2 = 0.8	0.297	–	–
x2 = 0.85	0.235	767.56	1.38426
x2 = 0.8998	0.162	–	–
x2 = 0.9	–	777.1	1.38387
x2 = 0.9499	0.0854	–	–
x2 = 0.9501	–	787.71	1.38345

CCCCO [butan-1-ol]
Details	mass density [kg/m3]	refractive index
[1]	805.8	–
[2]	–	1.3974

CCCCCO [pentan-1-ol]
Details	mass density [kg/m3]	refractive index
[1]	810.8	–
[2]	–	1.4078

CCCCCO [pentan-1-ol] + CC(C)CC(C)(C)C
Details	excess molar enthalpy, [5] [kJ/mol]	mass density, [3] [kg/m3]	refractive index, [4]
x1 = 0.05	0.376	–	–
x1 = 0.0501	–	691.14	1.38936
x1 = 0.0998	0.4747	–	–
x1 = 0.1	–	695.2	1.38993
x1 = 0.1499	–	699.5	1.39059
x1 = 0.15	0.5313	–	–
x1 = 0.1996	0.5546	–	–
x1 = 0.2017	–	704.19	1.39135
x1 = 0.2997	0.6019	–	–
x1 = 0.3001	–	713.84	1.39297
x1 = 0.3999	0.5912	–	–
x1 = 0.4	–	724.6	1.39478
x1 = 0.4998	0.5511	–	–
x1 = 0.5001	–	736.36	1.3967
x1 = 0.5999	0.4561	–	–
x1 = 0.6001	–	749.12	1.3987
x1 = 0.7	0.381	762.91	1.40077
x1 = 0.7999	–	777.72	1.40293
x1 = 0.8	0.264	–	–
x1 = 0.85	0.197	785.54	1.40407
x1 = 0.9	0.134	793.63	1.40525
x1 = 0.95	0.0627	801.98	1.40649

CCCO [propan-1-ol]
Details	mass density [kg/m3]	refractive index
[1]	799.6	–
[2]	–	1.3832
